Data as given in publication PMC2600610, “Ir-LBP, an Ixodes ricinus Tick Salivary LTB4-Binding Lipocalin, Interferes with Host Neutrophil Function” (PLoS ONE, 2008).

What was measured:
Ir-LBP [1] = biological target: T1, Ir-LBP (Ixodes ricinus, UniProt B7ZDG7); assay: Competitive binding: inhibition of 3H-LTB4 binding to Ir-LBP by eicosanoids; settings: 2 h; for decrease of the binding of 1 nM 3H-LTB4 to Ir-LBP: competitor at 10 µM
Method: The specificity of this binding was then evaluated by incubating Ir-LBP with increasing concentrations of different eicosanoids (LTB4, LTD4, LTC4, LTE4, 12(R)-hydroxyeicosatetraenoic acid (HETE), 15(S)-hydroxyperoxyeicosatetraenoic acid (HpETE), LTA4 methyl ester and 5 (S), 6 (R)-Lipoxin A4) in the presence of a fixed concentration of ^3H-LTB4 (Figure 1B). […] On the other hand, only at a very high concentration of 10 µM were LTD4, LTE4 and 12(R)-HETE able to decrease the binding of 1 nM of ^3H-LTB4 to Ir-LBP by approximately 30%. […] Furthermore, this interaction is reversible. The addition of an excess of cold LTB4 (10 µM) for 2 h displaces the binding between Ir-LBP and 1 nM of ^3H-LTB4 (data not shown). […] This binding may only be displaced by very high concentrations (10 µM versus nM) of eicosanoid analogs.
(§1) The dissociation constant was measured in PBS (pH 7.4) using purified Ir-LBP and an increasing amount of ^3H-LTB4. Non-specific binding was determined by measuring bound radioactivity in the absence of Ir-LBP. Protein precipitation with polyethylene glycol 8000 was used to separate bound from free histamine. Protein-bound radioactivity was determined with a Wallac 1409 scintillation counter. Saturation experiments were analyzed by non-linear regression using the curve fitting program GraphPad Prism® (GraphPad software, San Diego, CA, U.S.A.), B = (Bmax [F])/KD+[F]), where B is the amount of bound ligand at equilibrium, Bmax is the maximum number of binding sites, [F] is the concentration of free ligand and KD is the ligand dissociation constant. Competitive binding assays were performed using purified Ir-LBP with 1 nM of ^3H-LTB4 and an increasing amount of unlabelled competitor for 2 h.

neutrophils [2] = test system: neutrophils; design: method as in PMID 12770944, PMID 10588632; settings: BLT1 antagonists; cited from earlier work
Ir-LBP [3] = biological target: T1, Ir-LBP; assay: Saturation curve and Scatchard analysis for LTB4 binding to Ir-LBP (Figure 1A), ligand as substance; settings: saturation curve, 3H-LTB4
Human neutrophils = assay: Neutrophil apoptosis assay (Annexin-V-FITC/PI, flow cytometry); type: cell-based; settings: LTB4 10^-7 M, 24 h of culture
Method: Human blood neutrophils were obtained from buffy coats (Transfusion Center, Liege, Belgium). Neutrophils were separated from mononuclear cells by density centrifugation (Histopaque; Sigma-Aldrich). Contaminating erythrocytes were removed from the neutrophil fraction by hypotonic lysis. Neutrophil purity, determined by counting cytospin preparations stained with Diff-Quick (Dade Behring), was always >95%. Neutrophils were cultured at a density of 2×10^6 cells/ml in RPMI-1640 supplemented with 1% glutamine, 10% FCS, 50 µg/ml streptomycin, and 50 IU/ml penicillin (all from Gibco BRL). Neutrophils were cultured in the absence or presence of 10^−7 M LTB4 (Sigma-Aldrich) and/or 0.2–2 µg/ml Ir-LBP.
Apoptosis was assessed by staining with Annexin-V-FITC and propidium iodide (PI) using the Annexin-V-FLUOS staining kit (Roche), following the manufacturer's recommendations. Flow cytometry analyses were performed with a FACSAria™ (BD Biosciences).

BLT1 = biological target: BLT1; design: method as in PMID 6097945, PMID 6323613, PMID 2823316; settings: read-out: Kd of BLT1 for LTB4; cited from earlier work
BLT2 = biological target: BLT2; design: method as in PMID 10934230; settings: read-out: Kd of BLT2 for LTB4; cited from earlier work
neutrophils [4] = test system: neutrophils; design: method as in PMID 9261334; settings: BLT1 and BLT2 antagonist; cited from earlier work
R53T/R73A = test system: T2, R53T/R73A; assay: Saturation binding of ^3H-LTB4 (PBS pH 7.4, PEG 8000 precipitation) to wild-type and mutant Ir-LBP expressed in 293T cells.; settings: SD
T2 construct: pCDNA3.1/V5-His-TOPO, expressed in 293T cells
Description: (§2) In order to determine which amino acids of Ir-LBP are involved in the binding to LTB4, we produced mutants designed on the basis of the dynamic model established in silico. […] For the interaction with the second hydroxyl group, the residue selected to be mutated is Arg 73. The choice was made on this residue because Glu 188 is conserved for all LIRs and should thus not be as specific as Arg 73; furthermore, Arg 53 is bridged to Arg 73 by an aspartic residue from the loop corresponding to the Ω loop in Ra-HBP2. The two hydroxyl groups and the two Arg bridged by Asp Ω could form an interacting network, further stabilizing the binding with LTB4. Two single mutants were therefore produced by replacing Arg 53 with threonine (R53T) and Arg 73 with alanine (R73A). A double mutant (R53T/R73A) was also produced by combining the 2 substitutions of the single mutants. A null mutant was also constructed by replacing serine 124 with threonine (S124T). […] Therefore, the affinity of this mutant for LTB4 should not be affected. These mutants and “wild type” Ir-LBP were expressed in 293T cells, and analyzed to determine their dissociation constant for LTB4.
(§3) Site-directed mutagenesis of Ir-LBP in pCDNA3.1/V5-His-TOPO
(§4) Subconfluent 293T cells in 35-mm diameter wells (Orange Scientific) were transfected with […] plasmid DNA and […] Fugene 6 (Roche Biochemicals) in Dulbecco's modified Eagle's medium (DMEM, Invitrogen) without FCS. The medium was harvested after 72 h. Pooled supernatants were cleared by centrifugation, concentrated 10-fold by filtration on 10000 NMWL membranes (Millipore), ultracentrifuged at 140,000 g before use, and finally stored at −80°C. Concentrated culture supernatants were analyzed by western blotting on a Hybond ECL membrane (GE healthcare) using an anti-V5 primary antibody (Invitrogen), an IgHRP conjugate as secondary antibody and the ECL detection reagent (GE healthcare) according to the manufacturer's instructions. The coding regions of Ir-LBP were amplified by PCR (94°C for 30 s, 56°C for 30 s, 72°C for 1 min.; 30 cycles) using ExTaq DNA Polymerase (Taqara). […]
as §1, with “Protein precipitation with polyethylene glycol 8000 was used to separate bound from free histamine.” left out, “Competitive binding assays were performed using purified Ir-LBP with 1 nM of ^3H-LTB4 and an increasing amount of unlabelled competitor for 2 h.” left out

R53T = test system: T3, R53T; assay: as above; settings: SD
T3 construct: pCDNA3.1/V5-His-TOPO, expressed in 293T cells
Description: as §2, §3, §4
as §1, with “Protein precipitation with polyethylene glycol 8000 was used to separate bound from free histamine.” left out, “Competitive binding assays were performed using purified Ir-LBP with 1 nM of ^3H-LTB4 and an increasing amount of unlabelled competitor for 2 h.” left out

R73A = test system: T4, R73A; assay: as above; settings: SD
T4 construct: pCDNA3.1/V5-His-TOPO, expressed in 293T cells
Description: as §2, §3, §4
as §1, with “Protein precipitation with polyethylene glycol 8000 was used to separate bound from free histamine.” left out, “Competitive binding assays were performed using purified Ir-LBP with 1 nM of ^3H-LTB4 and an increasing amount of unlabelled competitor for 2 h.” left out

S124T = test system: T5, S124T; assay: as above; settings: SD
T5 construct: pCDNA3.1/V5-His-TOPO, expressed in 293T cells
Description: as §2, §3, §4
as §1, with “Protein precipitation with polyethylene glycol 8000 was used to separate bound from free histamine.” left out, “Competitive binding assays were performed using purified Ir-LBP with 1 nM of ^3H-LTB4 and an increasing amount of unlabelled competitor for 2 h.” left out

T1 sequence (B7ZDG7 20-200 limits assumed): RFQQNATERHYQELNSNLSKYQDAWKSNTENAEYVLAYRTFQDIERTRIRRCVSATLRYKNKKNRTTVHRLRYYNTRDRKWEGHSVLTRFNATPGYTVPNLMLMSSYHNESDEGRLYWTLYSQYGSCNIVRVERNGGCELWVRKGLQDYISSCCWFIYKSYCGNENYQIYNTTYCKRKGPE

CCCCC/C=C\C[C@@H](O)/C=C/C=C\C/C=C\CCCC(=O)O [12(R)-HETE, 12(R)-hydroxyeicosatetraenoic acid]
decrease of the binding of 1 nM 3H-LTB4 to Ir-LBP (Ir-LBP [1]): approximately 30%

CCCCC/C=C\C\C=C/C=C/C=C/[C@@H](SC[C@H](N)C(=O)NCC(=O)O)[C@@H](O)CCCC(=O)O [LTD4]
decrease of the binding of 1 nM 3H-LTB4 to Ir-LBP (Ir-LBP [1]): approximately 30%

CCCCC/C=C\C\C=C/C=C/C=C/[C@@H](SC[C@H](N)C(=O)O)[C@@H](O)CCCC(=O)O [LTE4]
decrease of the binding of 1 nM 3H-LTB4 to Ir-LBP (Ir-LBP [1]): approximately 30%

O=C(O)C1(c2ccc3c(c2)OC[C@H](Cc2ccc(-c4ccccc4)cc2)[C@H]3O)CCCC1 [CP-105696]
inhibition of the apoptosis delay induced by LTB4 (neutrophils [2]): capable of inhibiting

CCCCC/C=C\C\C=C/C=C/C=C/[C@@H]1O[C@H]1CCCC(=O)OC [LTA4 methyl ester]
decrease of the binding of 1 nM 3H-LTB4 to Ir-LBP (Ir-LBP [1]): unable to compete

CCCCC/C=C\C[C@@H](O)/C=C/C=C/C=C\[C@@H](O)CCCC(=O)O [LTB4, Leukotriene B4]
Kd (Ir-LBP [3]): 0.59 nM | IC50 (Ir-LBP [1]; 1 nM 3H-LTB4, unlabelled competitor): 5.7 nM | apoptosis levels versus untreated controls (Human neutrophils): significantly lower | Kd (BLT1): ~1 nM | Kd (BLT2): ~23 nM

CCCCC[C@@H](/C=C/C=C\C/C=C\C/C=C\CCCC(=O)O)OO [15(S)-HpETE, 15(S)-hydroxyperoxyeicosatetraenoic acid]
decrease of the binding of 1 nM 3H-LTB4 to Ir-LBP (Ir-LBP [1]): unable to compete

COc1ccc(/C=C/CCCCOc2cccc(OCCCCC(=O)O)c2CCC(=O)O)cc1 [ONO-4057]
inhibition of endothelial transmigration of neutrophils (neutrophils [4]): totally inhibits

CCCCC/C=C\C\C=C/C=C/C=C/[C@@H](SC[C@H](NC(=O)CC[C@H](N)C(=O)O)C(=O)NCC(=O)O)[C@@H](O)CCCC(=O)O [LTC4]
decrease of the binding of 1 nM 3H-LTB4 to Ir-LBP (Ir-LBP [1]): unable to compete

CCCCC[C@H](O)/C=C/C=C\C=C\C=C\[C@@H](O)[C@@H](O)CCCC(=O)O [5(S), 6(R)-Lipoxin A4, 5 (S), 6 (R)-Lipoxin A4]
decrease of the binding of 1 nM 3H-LTB4 to Ir-LBP (Ir-LBP [1]): unable to compete

CCCCC/C=C\C[C@@H](O)/C=C/C=C/C=C\[C@@H](O)CCCC(=O)O [^3H-LTB4, tritiated leukotriene B4]
Kd (R53T/R73A): 4.23 nM | Kd (R53T): 0.43 nM | Kd (R73A): 0.87 nM | Kd (S124T): 0.45 nM

COc1ccc(CCCCCCCCOc2ccc(C[S+]([O-])c3cccc(N)c3)nc2/C=C/C(=O)[O-])cc1.[Li+] (stereo not shown) [SB201146]
inhibition of the apoptosis delay induced by LTB4 (neutrophils [2]): capable of inhibiting
